Assay results as given in patent US7323118B2, “Composition of hypochlorous acid and its applications” (Aquilabs S.A., priority 2001, dated 2008).

Legend:
Assay in all cases: Cultures and tests of inhibition (culture agar, Petri box)
Format in all cases: cell-based
Conditions in all cases: added to the culture agar; inhibition haloes in the Petri box
pseudomona = test system: pseudomona
E. Coli = test system: E. Coli
staphylococcus aureus = test system: staphylococcus aureus

Measured: inhibition of growth

OCl [Hypochlorous acid]
full inhibition: all assays above
